Consider 12 molecules from PubChem BioAssay (NCI).

Structures are written as SMILES.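 A five-concentration, 48-hour dose response in 96-well plates underlies each endpoint, interpolated linearly between surrounding concentrations. GI50 marks 50% less growth. At the TGI there is no net growth.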

Among the test systems are ACHN renal; CCRF-CEM leukemia; DU-145 prostate; MDA-MB-231 breast; NCI-H522 lung; SF-539 CNS; RPMI-8226 leukemia; T-47D breast; 786-0 renal; DMS 114 small cell lung; DMS 273 small cell lung; HOP-18 NSCLC.
Experiment in all cases: NCI-60 cell line screen, 48 h

Regarding `COc1ccc(C2CC(c3cccc(Nc4ccncc4)c3)=NN2c2ccc(Cl)cc2)cc1` (centres undefined), the GI50 in the assay with ACHN renal was 1.56 µM; in the assay with CCRF-CEM leukemia it was 2.5 µM; with DU-145 prostate, 1.74 µM; with MDA-MB-231 breast it was 1.33 µM; with NCI-H522 lung it was 1.79 µM; in the assay on SF-539 CNS it was 1.63 µM. Moreover, the TGI stood at 2.9 µM with ACHN renal; 7.74 µM in the assay with CCRF-CEM leukemia; 3.17 µM in the assay with DU-145 prostate; 2.65 µM with MDA-MB-231 breast; 3.71 µM with NCI-H522 lung; 3.03 µM with SF-539 CNS.
`O=Cc1cc([N+](=O)[O-])no1`: the TGI with CCRF-CEM leukemia was above 100 µM; in the assay on DU-145 prostate, above 100 µM; in the assay on MDA-MB-231 breast, 64.3 µM; with RPMI-8226 leukemia, above 100 µM; with T-47D breast, above 100 µM.
For the molecule `CS(=O)(=O)OC1CN2CCC1CC2` (centres undefined), the TGI in the assay on 786-0 renal, in the assay with ACHN renal, with CCRF-CEM leukemia, in the assay on DU-145 prostate, in the assay on MDA-MB-231 breast and in the assay on NCI-H522 lung was above 100 µM each time. The TGI in the assay with RPMI-8226 leukemia and in the assay with T-47D breast was above 100 µM in each case.
In the case of `Cc1cccc2cc3c(ccc4ccccc43)c[n+]12`, the TGI was above 100 µM in the assay with 786-0 renal; above 100 µM with ACHN renal; above 100 µM with CCRF-CEM leukemia; above 100 µM with DU-145 prostate; above 100 µM in the assay with MDA-MB-231 breast; 38.2 µM with NCI-H522 lung. Further, the figures for the TGI in the assay on RPMI-8226 leukemia and with SF-539 CNS were above 100 µM and 66.2 µM, respectively.
On to `CCN1C=C/C(=C\C=C/c2cc[n+](CC)c3ccccc23)c2ccccc21`, for which the TGI in the assay with 786-0 renal amounted to 18.2 µM; with ACHN renal, 33.8 µM; in the assay on CCRF-CEM leukemia it was 30.9 µM; with DU-145 prostate it was 26.3 µM; in the assay on MDA-MB-231 breast, 9.32 µM; in the assay on NCI-H522 lung, 23.1 µM. For the same molecule, the results for the TGI in the assay with RPMI-8226 leukemia, in the assay with SF-539 CNS and with T-47D breast were 12 µM, 9.08 µM and 28 µM, respectively.
Take `CN(c1cc2ncc(=O)[nH]c2cc1NC(N)=NCc1ccc(Cl)cc1)C1CCCCC1`: the GI50 with ACHN renal is 7.12 µM; with CCRF-CEM leukemia, 6.33 µM; in the assay with DU-145 prostate, 7.56 µM; in the assay with MDA-MB-231 breast, 2.46 µM; in the assay on NCI-H522 lung it was 7.39 µM; with RPMI-8226 leukemia, 3.54 µM. For the same molecule, the GI50 in the assay on SF-539 CNS was 7.68 µM; in the assay on T-47D breast, 5.82 µM. Moreover, the TGI in the assay with ACHN renal was found to be 14.2 µM; in the assay with CCRF-CEM leukemia, 15.6 µM; with DU-145 prostate, 14.3 µM; with MDA-MB-231 breast, 9.04 µM; in the assay on NCI-H522 lung, 16.1 µM; with RPMI-8226 leukemia, 13.4 µM. For the same molecule, the TGI in the assay on SF-539 CNS is 14.6 µM; with T-47D breast it was 17 µM.
For the molecule `Nc1cc2c(nnn2C2OC(COCc3ccccc3)C(OCc3ccccc3)C2OCc2ccccc2)c(=O)[nH]1` (centres undefined), the TGI in the assay on 786-0 renal, in the assay with ACHN renal, in the assay on CCRF-CEM leukemia, in the assay on DU-145 prostate, with MDA-MB-231 breast and with NCI-H522 lung was above 100 µM each time. Further, the TGI was 69.5 µM in the assay with SF-539 CNS and above 100 µM in the assay on T-47D breast.
Take `CCCCCCNC(=O)c1cc(CCc2cc(O)ccc2O)ccc1O`: the TGI in the assay with 786-0 renal was 4.26 µM; in the assay on ACHN renal, 7.68 µM; in the assay on CCRF-CEM leukemia it was above 100 µM; in the assay with DU-145 prostate it was 22.7 µM; with MDA-MB-231 breast, 5.8 µM; in the assay with NCI-H522 lung, 3.05 µM. The molecule also displayed a TGI in the assay on SF-539 CNS of 5.31 µM. For the same molecule, the GI50 in the assay with SF-539 CNS is 2.18 µM.
Take `O=S1(=O)C(c2ccccc2)C(N2CCCCC2)C1C1CC2c3ccccc3C1c1ccccc12` (centres undefined): the TGI with 786-0 renal is above 100 µM; with ACHN renal, above 100 µM; in the assay with CCRF-CEM leukemia it was above 24.3 µM; with DU-145 prostate, above 100 µM; in the assay with MDA-MB-231 breast, above 100 µM; with NCI-H522 lung, above 100 µM. The TGI in the assay on RPMI-8226 leukemia, in the assay on SF-539 CNS and in the assay on T-47D breast was above 100 µM each time.
`CO/C=C(/C(=O)OC)c1ccccc1[C@@H]1CC1c1cccc(F)c1` (some centres undefined): the TGI in the assay with 786-0 renal was above 100 µM; in the assay on ACHN renal, 62.7 µM; in the assay on CCRF-CEM leukemia, 87.7 µM; in the assay on DU-145 prostate, above 100 µM; in the assay with MDA-MB-231 breast, above 100 µM; in the assay on NCI-H522 lung, 35.3 µM. The TGI in the assay on RPMI-8226 leukemia was 48.3 µM; in the assay with SF-539 CNS it was 58.1 µM; in the assay with T-47D breast it was above 100 µM.
Consider `CCOC(=O)C[C@@H]1C2(C=C[C@@]13CO3)OCC(C)(C)CO2`, for which the TGI with CCRF-CEM leukemia, in the assay with DU-145 prostate, in the assay on MDA-MB-231 breast, in the assay on SF-539 CNS and in the assay with T-47D breast was above 100 µM in each case.
`Cc1ccc(NP(=O)(Oc2ccccc2)N(CCCl)CCCl)cc1` (centres undefined): the TGI in the assay with ACHN renal, in the assay with DMS 114 small cell lung, in the assay on DMS 273 small cell lung, with HOP-18 NSCLC, in the assay on NCI-H522 lung and in the assay with RPMI-8226 leukemia was above 100 µM in each case. In the assay on SF-539 CNS, this molecule gave a TGI above 100 µM.
